Source: US6624188B1, “Method of treatment with compounds having retinoid-like activity and reduced skin toxicity and lacking teratogenic effects” (Allergan, Inc., priority 1992, dated 2003)
Converted amounts (≈) assume the structure as drawn.

How the values were obtained:
[1] = test system: tissue transglutaminase (tTGASE) in HL-60 cells; assay: Tissue Transglutaminase Assay (tTGASE) in HL-60 Cells; assay type: cell-based; settings: FIGS. 6-9
Experimental: Other assays in which the retinoid like activity of the compounds used in accordance with the invention are confirmed are the HL-60 transglutaminase induction and HL-60 differentiation assay, the procedures of which are described as follows.
HL-60 cells were grown as a suspension culture in T-162 cm^2 flasks in serum-free RPMI 1640 medium supplemented with insulin (5 μg/ml), transferrin (5 μg/ml), and selenium (3 nM). The cells (1×10^6 cells/well, in 6-well dishes) were treated with serial dilutions of test compounds in the above RPMI 1640 medium which was additionally supplemented with […] dibutyryl cyclic adenosine monophosphate, a component found to be necessary for efficient differentiation of the cells. Ethanol was used in the vehicle control cultures. After 1 days of incubation at 37° C. in a 7.5% CO2 incubator, the cells were collected in a set of tubes and pelleted by centrifugation. The cells were lyzed in a buffer containing 20 mM Tris-HCl, pH 7.5, 1 mM EDTA, and 0.5% Triton X-100. An aliquot of the cell lysate was assayed for tTGASE activity in a reaction mixture containing 20 mM Tris-HCl, pH 7.5, 5 mM CaCl2, 2 mg/ml dimethylcasein, 15 mM B-mercaptoethanol and 50 μCi/ml [2,3-^3H] putrescine dihydrochloride. The reaction was carried out for 60 minutes in a 37° C. shaking water bath. The reaction was stopped by an addition of 10% trichloroacetic acid containing 0.1% putrescein. An aliquot of the stopped reaction mixture was spotted on Whatman 3 MM filter discs. The filter discs, along with the control blank filter discs, were washed twice with 5% trichloroacetic acid containing 0.1% putrescein and twice with methanol. After drying under a heat lamp, the radioactivity in the filter discs was determined by scintillation counting. An aliquot of the cell lysates was also assayed for […] by the Bradford method (Bio-Rad). After subtracting the radioactivity from the control blank filter discs, the data were calculated and expressed as pmol/min/mg protein.
As is well understood in the art, induction of tranglutaminase activity in the just-described assay is an early marker of retinoid like activity.

[2] = pharmacokinetic study, drug concentration in maternal plasma and embryo after oral intubation; assay type: in vivo; settings: mice, 10mg/kg dose, FIG. 1
Experimental: FIG. 1 is a graph showing the concentration of compound AGN 191701 in nanograms per ml, or nanograms per gram as indicated on the chart, in the plasma and embryo of mice at various times after oral intubation of a single dose of 10 mg/kg of the compound.
In contrast, the teratogenecity of prior art compound AGN 191183 is so high that even an undetectably low concentration of the drug already causes defective embryos.

[3] = test system: limb bud mesenchymal cells; assay: inhibition of chondrogenesis in high-density spot cultures of limb bud mesenchymal cells; assay type: cell-based; settings: Mus musculus; limb bud mesenchymal cell spot cultures, terminated 96 hours after plating; read-out: IC50 (concentration which inhibited chondrogenesis by 50%)
Excerpt: In an in vitro bioassay which measures inhibition of chondrogenesis (bone formation) in […] as a classic measure of teratogenecity the results shown in Table 2 were obtained. The assay is described as follows:
High-density “spot” cultures of limb bud mesenchymal cells were used to compare the ability of various concentrations of test drugs to suppress chondrogenic differentiation as a bioassay. Forelimb buds of mouse embryos on day 12 of gestation (54±2 somites) were dissociated in a trypsin-EDTA solution, and the resultant single-cell suspension was plated as 20-μl spots (200,000 cells/spot) on plastic culture dishes. Retinoid concentrations ranging from 0.3 ng/ml to 3 μg/ml (1 nM-10 μM) were added to the culture medium (Eagle's MEM+10% fetal bovine serum, GIBCO) 24 hours after initial plating. […]
The cultures were terminated 96 hours after plating, at which time the medium was removed and the cells were fixed for 1 hour in 10% formalin containing 0.5% cetylpyridinium chloride. The cultures were rinsed in acetic acid and stained for 1 hour in 0.5% Alcian blue solution at pH 1.0, differentiated in 3% acetic acid, and then dehydrated in ethanol and scored for chondrogenesis under the microscope. […] The number of cartilage nodules stained in the whole spot, mean number of nodules, and standard deviations were calculated for four replicate cultures per treatment. […]

gestating ICR mice = assay: in vivo teratology study, single oral dose on day 11 of gestation; set-up: species or system mouse; settings: mouse, in vivo; for # Litters Normal / Teratogenic Effects % Cleft Palate / Teratogenic Effects % Limb Defects / Teratogenic Effects % Resorbed: po
Experimental: The methodology of the study is described as follows:
ICR mice (Ace Animals, Boyertown, Pa.) were used. Mature male and virgin female ICR mice were housed in environmentally controlled rooms and acclimatized to a 12 hour light/dark cycle (light cycle 6 A.M. to 6 P.M.) for 2 weeks prior to use. All animals were maintained on Purina Lab Chow and tap water ad libitum. A group of 3-4 females was caged with a single male of proven fertility for 4 hours. Presence of a vaginal plug immediately afterward was regarded as evidence of successful mating, and this day was designated as day 0 of gestation.
[…] All animals were killed by cervical dislocation under mild ether anesthesia on day 17 of gestation. Upon laparotomy, the fetuses were examined for external malformations and weighed; one-half of each litter was then fixed in 95% ethanol and processed for staining of the skeleton by the rapid, alizarin red-S dye method. These preparations were examined under a dissection microscope to screen for abnormalities in the axial and the appendicular skeleton. The other half of each litter was fixed in Bouin's solution and examined by freehand razor serial sectioning to screen for anomalies of the brain, face, and palate.
Differences in dose-related incidence of malformations and resorptions were assessed by computing percentages of affected conceptuses among total implantation sites. The groups were compared statistically by a method based on Student's t-tests of arcs in square root transformed percentages. Values at 0.05 probability level were considered significant. The median effective dose was calculated by logarithmic curve fitting of the dose-response data.

human sebocyte cultures = assay: human sebocyte culture 3H-thymidine incorporation (DNA synthesis, anti-proliferative effect); assay type: cell-based; settings: human sebocytes, 8 days treatment, FIG. 2
Excerpt: The retinoid like activity of the compounds used in accordance with the method of treatment of the present invention and of the novel compounds of the invention can be confirmed by several assay procedures. An assay involving human sebocyte cultures measures the inhibition of ^3H-thymidine into cells, and thus measures inhibition of DNA synthesis and thus an anti-proliferative effect on sebocyte (i.e. a sebostatic effect). This assay is also considered a specific assay for effectiveness of a compound as a potential anti-acne drug. The test is conducted as follows.
Face-lift or forehead reduction skins from cosmetic surgeries were used as sources of human sebaceous gland cells (sebocytes).
Isolated sebocytes were plated in type 1 collagen coated-dishes in DMEM/F12 (1:1) medium supplemented with 8% fetal bovine serum, 2% human serum, 10 ng/ml epidermal growth factor, 1 nM cholera toxin, 1 μM hydrocortisone, and penicillin/streptomycin/amphotericin B. Secondary cultures were prepared by plating Dispase dissociated cells in collagen coated 24-well plates.
Sub-confluent secondary cultures were treated with the test compounds or ethanol vehicle every 2-3 days for 8 days in the above medium from which the total serum concentration was reduced to 2% and hydrocortisone was not included. During the last 6 hours of treatment, the cultures were labeled with 2 μCi/ml ^3H-thymidine. DNA from the cells were extracted by thichoroacetic acid and perchloric acid, and assayed for radioactivity by scintillation counting and for content of DNA by the diphenylamine calorimetric method. The results were expressed as CPM/μg DNA, or as per cent of vehicle control which incorporated about 1,000-1,500 cpm/μg DNA.

[4] = female, ICR, 1 mg/kg, 17 day of gestation
[5] = female, ICR, 10 mg/kg, 17 day of gestation
[6] = female, ICR, 100 mg/kg, 17 day of gestation

C/C(=C\c1cc(C(=O)O)cs1)c1cc2c(cc1C)C(C)(C)CCC2(C)C [AGN 191701, 2-[(E)-2-(5,6,7,8-Tetrahydro-3,5,5,8,8-pentamethylnaphthalen-2-yl)propen-1-yl]thiophene-4-carboxylic Acid]
induction of transglutaminase activity [1]: active | concentration of the drug in the maternal plasma and in the embryo [2]: present in substantial concentration | IC50 [3]: 19 µg/mL (≈ 51.6 µM) | times less teratogenic than AGN 191183 (gestating ICR mice; female, ICR, 17 day of gestation): approximately 10^4 times | # Litters Normal (gestating ICR mice; [4]): 1 | Teratogenic Effects % Cleft Palate (gestating ICR mice; [4]): 0% | Teratogenic Effects % Limb Defects (gestating ICR mice; [4]): 0% | Teratogenic Effects % Resorbed (gestating ICR mice; [4]): 18% | # Litters Normal (gestating ICR mice; [5]): 3 | Teratogenic Effects % Cleft Palate (gestating ICR mice; [5]): 0% | Teratogenic Effects % Limb Defects (gestating ICR mice; [5]): 0% | Teratogenic Effects % Resorbed (gestating ICR mice; [5]): 14% | # Litters Normal (gestating ICR mice; [6]): 2 | Teratogenic Effects % Cleft Palate (gestating ICR mice; [6]): 19% | Teratogenic Effects % Limb Defects (gestating ICR mice; [6]): 22% | Teratogenic Effects % Resorbed (gestating ICR mice; [6]): 2% | teratogenic effect (in words) (gestating ICR mice): very little teratogeneic effect | inhibition of 3H-thymidine incorporation (effectiveness in sebocyte assay) (human sebocyte cultures): effective
